From ChEMBL document CHEMBL5380848, “Novel Benzo Five-Membered Heterocycle Derivatives as P-Glycoprotein Inhibitors: Design, Synthesis, Molecular Docking, and Anti-Multidrug Resistance Activity” (J Med Chem, 2023)

Assays:
[1] = target: ATP-dependent translocase ABCB1 (Homo sapiens, UniProt P08183); assay: Inhibition of P-gp-mediated multidrug resistance in doxorubicin-resistant human MCF7/ADR cells assessed as fold reversal of resistance by measuring doxorubicin IC50 incubated for 48 hrs by CCK-8 assay relative to doxorubicin IC50 in absence of compound; format: cell-based; conditions: nci-adr-res
MCF7 = assay: Cytotoxicity against human MCF7 cells assessed as inhibition rate at 5 uM measured after […] hrs by CCK-8 assay relative to control; format: functional
NCI/ADR-RES = assay: Cytotoxicity against doxorubicin-resistant human MCF-7/ADR cells assessed as inhibition rate at 5 uM measured after […] hrs by CCK-8 assay relative to control; format: functional

Sequence of ATP-dependent translocase ABCB1 (P08183 whole entry): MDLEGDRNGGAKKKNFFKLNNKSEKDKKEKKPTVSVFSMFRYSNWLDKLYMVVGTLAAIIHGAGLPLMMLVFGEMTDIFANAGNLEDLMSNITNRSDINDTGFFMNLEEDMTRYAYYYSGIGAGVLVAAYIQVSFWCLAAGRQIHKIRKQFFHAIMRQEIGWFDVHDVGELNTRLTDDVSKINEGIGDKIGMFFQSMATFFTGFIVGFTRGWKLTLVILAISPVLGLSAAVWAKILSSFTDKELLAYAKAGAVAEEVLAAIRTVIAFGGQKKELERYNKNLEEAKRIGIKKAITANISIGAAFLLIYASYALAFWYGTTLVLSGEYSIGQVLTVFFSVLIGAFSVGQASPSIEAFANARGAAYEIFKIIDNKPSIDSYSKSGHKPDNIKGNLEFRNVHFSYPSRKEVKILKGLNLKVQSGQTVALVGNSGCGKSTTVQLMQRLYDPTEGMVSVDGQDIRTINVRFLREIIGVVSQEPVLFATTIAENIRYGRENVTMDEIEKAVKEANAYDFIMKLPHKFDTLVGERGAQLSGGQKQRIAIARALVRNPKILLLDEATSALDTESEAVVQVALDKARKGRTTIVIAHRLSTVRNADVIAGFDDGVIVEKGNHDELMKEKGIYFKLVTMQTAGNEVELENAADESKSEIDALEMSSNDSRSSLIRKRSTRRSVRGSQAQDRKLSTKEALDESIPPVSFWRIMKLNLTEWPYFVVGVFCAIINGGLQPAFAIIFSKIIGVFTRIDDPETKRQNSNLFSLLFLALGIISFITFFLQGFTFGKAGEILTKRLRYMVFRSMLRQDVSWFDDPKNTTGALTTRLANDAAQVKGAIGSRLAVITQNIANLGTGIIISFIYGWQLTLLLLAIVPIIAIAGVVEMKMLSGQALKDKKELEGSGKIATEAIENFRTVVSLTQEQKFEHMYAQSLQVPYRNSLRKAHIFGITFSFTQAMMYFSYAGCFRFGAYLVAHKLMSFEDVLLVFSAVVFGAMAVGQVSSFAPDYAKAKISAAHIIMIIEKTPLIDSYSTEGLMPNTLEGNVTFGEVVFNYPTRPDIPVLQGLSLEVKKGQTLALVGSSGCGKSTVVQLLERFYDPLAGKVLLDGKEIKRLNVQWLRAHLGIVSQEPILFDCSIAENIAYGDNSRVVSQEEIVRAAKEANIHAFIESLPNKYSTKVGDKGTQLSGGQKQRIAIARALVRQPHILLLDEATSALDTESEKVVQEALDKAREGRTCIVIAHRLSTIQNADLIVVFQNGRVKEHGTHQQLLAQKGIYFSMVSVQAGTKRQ

| Structure (SMILES) | fold change (FC) [1] | inhibition at 5 µM (MCF7) | inhibition at 5 µM (NCI/ADR-RES) |
| --- | --- | --- | --- |
| COc1cc2c(cc1OC)CN(C(=O)c1cc3cc(-c4ccc(NC(=O)c5ccc(F)cc5)cc4)ccc3[nH]1)CC2 | 3628.7 | 52.8% | 50.4% |
| COc1cc2c(cc1OC)CN(C(=O)c1cc3cc(-c4cccc(F)c4)ccc3[nH]1)CC2 | 19.9 |  |  |
| COc1cc2c(cc1OC)CN(C(=O)c1cc3cc(-c4ccc(F)cc4)ccc3[nH]1)CC2 | 51.3 |  |  |
| COc1cc2c(cc1OC)CN(C(=O)c1cc3cc(-c4ccc(NC(=O)c5ccccc5OC)cc4)ccc3[nH]1)CC2 | 16.1 | 20.7% | -2.9% |
| COc1ccc(-c2ccc3[nH]c(C(=O)N4CCc5cc(OC)c(OC)cc5C4)cc3c2)cc1OC | 56.2 |  |  |
| CCOc1ccc(-c2ccc3[nH]c(C(=O)N4CCc5cc(OC)c(OC)cc5C4)cc3c2)cc1 | 33.6 |  |  |
| COc1cc2c(cc1OC)CN(C(=O)c1cc3cc(-c4ccc(NC(=O)c5ccccc5Cl)cc4)ccc3[nH]1)CC2 | 241.9 | 12.7% | 12.4% |
| COc1cc2c(cc1OC)CN(C(=O)c1cc3cc(-c4ccc(OC(C)(C)C)cc4)ccc3[nH]1)CC2 | 27.5 |  |  |
| COc1cc2c(cc1OC)CN(C(=O)c1cc3cc(-c4ccc(NC(=O)c5ccc(Cl)cc5)cc4)ccc3n1Cc1ccccc1F)CC2 | 92.1 | 5.3% | 14.3% |
| COc1cc2c(cc1OC)CN(C(=O)c1cc3cc(-c4ccc(NC(=O)c5ccc(Cl)cc5)cc4)ccc3n1Cc1ccc(C)cc1)CC2 | 36.6 | 3.7% | 2.5% |
| COc1ccc(-c2ccc3[nH]c(C(=O)N4CCc5cc(OC)c(OC)cc5C4)cc3c2)c(OC)c1 | 112.7 |  |  |
| COc1cc2c(cc1OC)CN(C(=O)c1cc3cc(-c4ccc(NC(=O)c5ccc(OC(F)(F)F)cc5)cc4)ccc3[nH]1)CC2 |  | 46.7% | 53.8% |
| COc1cc(Cn2c(C(=O)N3CCc4cc(OC)c(OC)cc4C3)cc3cc(-c4ccc(NC(=O)c5ccc(Cl)cc5)cc4)ccc32)cc(OC)c1 | 41.5 | 3% | 11.2% |
| COc1cc2c(cc1OC)CN(C(=O)c1cc3cc(-c4ccc(NC(=O)c5ccc(Cl)cc5)cc4)ccc3n1Cc1cc(C(F)(F)F)cc(C(F)(F)F)c1)CC2 | 40.9 | 3.8% | 1.9% |
| COc1cc2c(cc1OC)CN(C(=O)c1cc3cc(-c4ccc(NC(=O)c5cccc(Cl)c5)cc4)ccc3[nH]1)CC2 | 431.5 | 12% | 17.7% |
| COc1cc2c(cc1OC)CN(C(=O)c1cc3cc(-c4ccc(N)cc4)ccc3[nH]1)CC2 | 34.9 |  |  |
| COc1cc2c(cc1OC)CN(C(=O)c1cc3cc(-c4ccc(NC(=O)c5ccc(Cl)cc5)cc4)ccc3n1Cc1ccc(Br)cc1)CC2 | 31.1 | 3.5% | -13.8% |
| COc1cc2c(cc1OC)CN(C(=O)c1cc3cc(-c4ccc(NC(=O)c5ccc(Cl)cc5)cc4)ccc3n1Cc1ccc(C(F)(F)F)cc1)CC2 | 29 | 15.5% | 12.6% |
| COc1cccc(-c2ccc3[nH]c(C(=O)N4CCc5cc(OC)c(OC)cc5C4)cc3c2)c1 | 204.4 |  |  |
| COc1cc2c(cc1OC)CN(C(=O)c1cc3cc(-c4cccc(C)c4)ccc3[nH]1)CC2 | 58.1 |  |  |

| Structure (SMILES) | fold change (FC) [1] | inhibition at 5 µM (MCF7) | inhibition at 5 µM (NCI/ADR-RES) |
| --- | --- | --- | --- |
| COc1cccc2c1C(=O)c1c(O)c3c(c(O)c1C2=O)C[C@@](O)(C(=O)CO)C[C@@H]3O[C@H]1C[C@H](N)[C@H](O)[C@H](C)O1 [DOXORUBICIN] | 1 |  |  |
| COc1cc2c(cc1OC)CN(C(=O)c1cc3cc(-c4ccc(NC(=O)c5ccccc5)cc4)ccc3[nH]1)CC2 | 146.3 | 15.5% | 11% |
| COc1cc2c(cc1OC)CN(C(=O)c1cc3cc(-c4ccc(NC(=O)c5ccccc5F)cc4)ccc3[nH]1)CC2 | 469.8 | 13.9% | 18.7% |
| COc1cc(OC)cc(-c2ccc3[nH]c(C(=O)N4CCc5cc(OC)c(OC)cc5C4)cc3c2)c1 | 86.4 |  |  |
| COc1cc2c(cc1OC)CN(C(=O)c1cc3cc(-c4ccc(NC(=O)c5ccc(Cl)cc5)cc4)ccc3n1Cc1ccc([N+](=O)[O-])cc1)CC2 | 25.9 | 19.1% | 12.8% |
| COc1ccc(Cn2c(C(=O)N3CCc4cc(OC)c(OC)cc4C3)cc3cc(-c4ccc(NC(=O)c5ccc(Cl)cc5)cc4)ccc32)cc1 | 105.6 | 3.2% | 18.1% |
| COc1cc2c(cc1OC)CN(C(=O)c1cc3cc(-c4ccc(NC(=O)c5ccc(Cl)cc5)cc4)ccc3n1Cc1ccccc1Br)CC2 | 36.1 | 18.2% | 17.1% |
| COc1cc2c(cc1OC)CN(C(=O)c1cc3cc(-c4ccc(NC(=O)c5ccc(Cl)cc5)cc4)ccc3n1Cc1cccc(C(F)(F)F)c1)CC2 | 39.9 | 8.5% | 6.3% |
| COc1cc2c(cc1OC)CN(C(=O)c1cc3cc(-c4ccc(C)cc4)ccc3[nH]1)CC2 | 41.4 |  |  |
| COc1cc2c(cc1OC)CN(C(=O)c1cc3cc(-c4ccc(NC(=O)c5ccc(Cl)cc5)cc4)ccc3n1Cc1cccc(Cl)c1)CC2 | 27.5 | 1.3% | 0.1% |
| COc1cc2c(cc1OC)CN(C(=O)c1cc3cc(-c4ccccc4C)ccc3[nH]1)CC2 | 26.3 |  |  |
| COc1cc2c(cc1OC)CN(C(=O)c1cc3cc(-c4ccc(NC(=O)c5ccc(Cl)cc5)cc4)ccc3n1Cc1ccccc1Cl)CC2 | 30.3 | 13.4% | 18.6% |
| COc1cc2c(cc1OC)CN(C(=O)c1cc3cc(-c4ccc(NC(=O)c5ccc(Cl)cc5)cc4)ccc3n1Cc1ccc(OC(F)(F)F)cc1)CC2 | 29.2 | 0.3% | 2.8% |
| COc1ccc(OC)c(-c2ccc3[nH]c(C(=O)N4CCc5cc(OC)c(OC)cc5C4)cc3c2)c1 | 108.7 |  |  |
| COc1ccc(CCN(C)CCCC(C#N)(c2ccc(OC)c(OC)c2)C(C)C)cc1OC (centres undefined) |  | 6.9% | 12.2% |
| COc1cc2c(cc1OC)CN(C(=O)c1cc3cc(-c4ccc(NC(=O)c5ccc(C#N)cc5)cc4)ccc3[nH]1)CC2 | 39.1 | 10.7% | 19.5% |
| COc1cc2c(cc1OC)CN(C(=O)c1cc3cc(-c4ccc(NC(=O)c5cccc(F)c5)cc4)ccc3[nH]1)CC2 | 1021.3 | 31.5% | 34.1% |
| COc1cc2c(cc1OC)CN(C(=O)c1cc3cc(-c4ccc(NC(=O)c5ccc(Cl)cc5)cc4)ccc3n1Cc1cccc(F)c1)CC2 | 37.6 | 1.7% | -2.6% |
| COc1cc2c(cc1OC)CN(C(=O)c1cc3cc(-c4ccc(Cl)cc4)ccc3[nH]1)CC2 | 100.4 |  |  |
| COc1cc2c(cc1OC)CN(C(=O)c1cc3cc(-c4ccc(OC(C)C)cc4)ccc3[nH]1)CC2 | 24 |  |  |

| Structure (SMILES) | fold change (FC) [1] | inhibition at 5 µM (MCF7) | inhibition at 5 µM (NCI/ADR-RES) |
| --- | --- | --- | --- |
| COc1cc2c(cc1OC)CN(C(=O)c1cc3cc(-c4ccccc4OC)ccc3[nH]1)CC2 | 15.1 |  |  |
| COc1cc2c(cc1OC)CN(C(=O)c1cc3cc(-c4ccc(OC(F)(F)F)cc4)ccc3[nH]1)CC2 | 99.1 |  |  |
| COc1ccc(C(=O)Nc2ccc(-c3ccc4[nH]c(C(=O)N5CCc6cc(OC)c(OC)cc6C5)cc4c3)cc2)cc1 | 78 | 19.6% | 23.9% |
| CCCCOc1ccc(-c2ccc3[nH]c(C(=O)N4CCc5cc(OC)c(OC)cc5C4)cc3c2)cc1 | 18.3 |  |  |
| COc1cc2c(cc1OC)CN(C(=O)c1cc3cc(-c4ccc(Oc5ccccc5)cc4)ccc3[nH]1)CC2 | 30 |  |  |
| COc1cc2c(cc1OC)CN(C(=O)c1cc3cc(-c4cccc(OC)c4OC)ccc3[nH]1)CC2 | 88.3 |  |  |
| COc1cc2c(cc1OC)CN(C(=O)c1cc3cc(-c4ccccc4Cl)ccc3[nH]1)CC2 | 52.8 |  |  |
| COc1cc2c(cc1OC)CN(C(=O)c1cc3cc(-c4ccc(NC(=O)c5ccc(Cl)cc5)cc4)ccc3n1Cc1ccccc1C(F)(F)F)CC2 | 10.4 | 19.3% | 8.6% |
| COc1ccc(-c2ccc3[nH]c(C(=O)N4CCc5cc(OC)c(OC)cc5C4)cc3c2)cc1 | 46.4 |  |  |
| COc1cc2c(cc1OC)CN(C(=O)c1cc3cc(-c4ccc([N+](=O)[O-])cc4)ccc3[nH]1)CC2 | 55.8 |  |  |
| CCCOc1ccc(-c2ccc3[nH]c(C(=O)N4CCc5cc(OC)c(OC)cc5C4)cc3c2)cc1 | 16.5 |  |  |
| COc1cc2c(cc1OC)CN(C(=O)c1cc3cc(-c4ccccc4F)ccc3[nH]1)CC2 | 17 |  |  |
| COc1cc2c(cc1OC)CN(C(=O)c1cc3cc(-c4cccc(Cl)c4)ccc3[nH]1)CC2 | 33.4 |  |  |
| COc1cc2c(cc1OC)CN(C(=O)c1cc3cc(-c4ccccc4[N+](=O)[O-])ccc3[nH]1)CC2 | 41.9 |  |  |
| COc1cc2c(cc1OC)CN(C(=O)c1cc3cc(-c4cccc([N+](=O)[O-])c4)ccc3[nH]1)CC2 | 76.3 |  |  |
| COc1cc2c(cc1OC)CN(C(=O)c1cc3cc(-c4cc(OC)c(OC)c(OC)c4)ccc3[nH]1)CC2 | 137.6 |  |  |
| C/C=C/C[C@@H](C)[C@@H](O)[C@H]1C(=O)N[C@@H](CC)C(=O)N(C)CC(=O)N(C)[C@@H](CC(C)C)C(=O)N[C@@H](C(C)C)C(=O)N(C)[C@@H](CC(C)C)C(=O)N[C@@H](C)C(=O)N[C@H](C)C(=O)N(C)[C@@H](CC(C)C)C(=O)N(C)[C@@H](CC(C)C)C(=O)N(C)[C@@H](C(C)C)C(=O)N1C [CYCLOSPORINE] |  |  | 24.5% |
| COc1cc2c(cc1OC)CN(C(=O)c1cc3cc(-c4ccccc4)ccc3[nH]1)CC2 | 10 |  |  |
| COc1cc2c(cc1OC)CN(C(=O)c1cc3cc(-c4ccc5c(c4)OCO5)ccc3[nH]1)CC2 | 33.4 |  |  |
